Consider two molecules from publication PMC8072890, “Aminoalkylamides of Eremomycin Exhibit an Improved Antibacterial Activity” (Pharmaceuticals, 2021).

In brackets after ≈: the same amount, converted by molar mass. Like-named read-outs stand apart in the source and are kept apart here. Marks after values point to notes of the source that are not given here.

For one data set, the system named is E. gallinarum BΠ 4147. The class given is cell-based. To be noted: strain resistant to vancomycin; broth dilution micromethod, CLSI; modal values (or range) of 3–5 independent tests. An excerpt: (§1) The antimicrobial activity of semisynthetic derivatives of eremomycin 4a–q was studied in comparison with vancomycin on a wide panel of Gram-positive bacteria sensitive (Staphylococcus aureus ATCC 29213, S. aureus R-2, S. haemoliticus 602, S. pneumoniae ATCC 6305, Enteroccus faecium 4, and E. faecalis 559) and resistant to vancomycin (S. aureus 3797, S.aureus 3798, E. faecium 2, E. faecium 3576, E. faecalis 9, E. faecalis 583, and E. gallinarum BΠ 4147), information about the strains given in Table S3. The minimum microbial inhibitory concentration (MIC) for the test compounds was determined by the broth dilution micromethod according to CLSI guidelines, and vancomycin and a standard strain S. aureus ATCC 29213 used as controls (Figure 2 and Tables S4 and S5).
(§2) Table S5. Antibacterial activity of vancomycin and derivatives 4a–q against resistant Gram-positive bacteria.
(§3) Strain/MIC (minimum inhibitory concentration; μg/ml)
(§4) Compound m n R S.aureus 3797 S.aureus 3798 E. faecium 2 E. faecium 3576 E. faecalis 9 E. faecalis 583 E. gallinarum
(§5) *MICs are presented as modal values for 3–5 independently replicate MIC tests for each strain and for the antibiotics. In the range of the obtained MIC
(§6) values, the obtained modal values are highlighted in bold.
A general note: Dilution methods test growth across graded concentrations, often in twofold steps.

A further data set has as its system E. faecalis 583. The class given is cell-based. To be noted: strain resistant to vancomycin; broth dilution micromethod, CLSI; modal values (or range) of 3–5 independent tests.
Excerpt: as §1, §2, §3, §4, §5, §6

In a further data set the test system is E. faecalis 9. The class given is cell-based. As to conditions: strain resistant to vancomycin; broth dilution micromethod, CLSI; modal values (or range) of 3–5 independent tests.
Excerpt: as §1, §2, §3, §4, §5, §6

The test system of the next data set is S.aureus 3798. The class given is cell-based. As to conditions: strain resistant to vancomycin; broth dilution micromethod, CLSI; modal values (or range) of 3–5 independent tests.
Excerpt: as §1, §2, §3, §4, §5, §6

For another data set, the system named is S. aureus 3797. The class given is cell-based. To be noted: strain resistant to vancomycin; broth dilution micromethod, CLSI; modal values (or range) of 3–5 independent tests.
Excerpt: as §1, §2, §3, §4, §5, §6

In another data set the test system is E. faecium 3576. In kind it is cell-based. As to conditions: strain resistant to vancomycin; broth dilution micromethod, CLSI; modal values (or range) of 3–5 independent tests.
Excerpt: as §1, §2, §3, §4, §5, §6

A further data set concerns E. faecium 2. The class given is cell-based. To be noted: strain resistant to vancomycin; broth dilution micromethod, CLSI; modal values (or range) of 3–5 independent tests.
Excerpt: as §1, §2, §3, §4, §5, §6

The next data set concerns S. haemoliticus 602. The class given is cell-based. As to conditions: sensitive strain; broth dilution micromethod, CLSI; modal values (or range) of 3–5 independent tests.
Excerpt: as §1
(§7) Table S4. Antibacterial activity of vancomycin and derivatives 4a–q against sensitive Gram-positive bacteria.
(§8) Strain/MIC (Minimum inhibitory concentration, μg/ml)*
(§9) Compound m n R S.aureus АТСС S.aureus R-2 S.haemoliticus S.pneumoniae АТСС E. faecium 4 E. faecalis 559
(§10) *MICs are presented as modal values for 3–5 independently replicated MIC tests for each strain and for the antibiotics. In the range of the
(§11) obtained MIC values, the obtained modal values are highlighted in bold.

For another data set, the system named is S. aureus R-2. In kind it is cell-based. To be noted: sensitive strain; broth dilution micromethod, CLSI; modal values (or range) of 3–5 independent tests.
Excerpt: as §1, §7, §8, §9, §10, §11

For the next data set, the system named is E. faecium 4. The class given is cell-based. As to conditions: sensitive strain; broth dilution micromethod, CLSI; modal values (or range) of 3–5 independent tests.
Excerpt: as §1, §7, §8, §9, §10, §11

Another data set has as its system E. faecalis 559. The class given is cell-based. As to conditions: sensitive strain; broth dilution micromethod, CLSI; modal values (or range) of 3–5 independent tests.
Excerpt: as §1, §7, §8, §9, §10, §11

Data set [1] relates to Staphylococcus aureus ATCC 29213. In kind it is cell-based. To be noted: vancomycin-sensitive control strain; broth dilution micromethod, CLSI; modal values (or range) of 3–5 independent tests.
Excerpt: as §1, §7, §8, §9, §10, §11

The conditions of data set [2]: mice, IV administration; previous investigation; cited from earlier work. The protocol: For the characterization of the therapeutic potential of the lead compound 4e, an acute toxicity test for an IV single-dose administration was also carried out (Table 2). […] The drug administration in doses of 130–190 mg/kg led to the death of some animals from 2 to 15 min after injections as a result of cardiac and respiratory arrest against the background of neurotoxicity. […] The quantitative parameters of acute toxicity (LD50 and MTD (LD10) values ...

A short description of data set [3]: Acute toxicity, single IV injection in mice. In kind it is in vivo, F1 (CBAxC57Bl) mice. As to conditions: for therapeutic index (TI = LD50/ED50): laboratory animals (mice), IV, LD50 acute toxicity / ED50 staphylococcal sepsis. The protocol:
The F1 (CBAxC57Bl) mice (18–20 g) were randomized into groups (n = 6) and received eremomycin N-(2-((2-fluorobenzyl)amino)ethyl)amide 4e through single intravenous injections. The intact animals were used as the control. The substance was dissolved in a 5% glucose solution and was administrated in dosage ranges of 130–200 mg/kg into the tail veins of the mice. The concentration of 4e in the injected solution was 5 mg/mL.
The acute toxicity was estimated by the mortality and survival time, as well as by the body weight gain/loss, food consumption, and clinical symptoms of intoxication, including behavioral reactions. […] The LD50 values and the maximum tolerated doses (MTD = LD10) were calculated using the method of Litchfield and Wilcoxon using the StatPlus Professional 3.8.0 software.

Data set [4] deals with S. aureus (strain 10, clinical isolate). Description: Mouse staphylococcal sepsis model, single IV administration. In kind it is in vivo, mice (SHK colony). To be noted: for Survival: 30 min after infection, n = 10; for ED50: mice infected IV with lethal dose of S. aureus (8 × 10^8 CFU/mouse), single IV dose 30 min after infection, n = 10 per group, observed 14 days, Behrens method. The protocol: A comparative study of the efficacy of eremomycin N-(2-((2-fluorobenzyl)amino)ethyl)amide (4e) and vancomycin was carried out in a mice staphylococcal sepsis model. Healthy female mice of the SHK colony weighing 20–22 g after two-week quarantine were randomized into groups (n = 10) and received S. aureus as the infectious agent (strain 10, clinical isolate, adapted for growth in vivo by five-fold passaging in mice). In the experiment, female mice of the SHK colony weighing 20–22 g were used. S. aureus (strain 10, clinical isolate), adapted for growth in vivo by five-fold passaging in mice, was used as the infectious agent. Initially, the lethal dose (LD100) of staphylococcus was determined for this mouse line using the intravenous infection route. The mice deaths were counted daily for 10 days. Thus, the lethal dose (LD100) was defined as 8 × 10^8 CFU/mouse. Afterwards, the mice were seated in cages of 10 heads and were infected intravenously with S. aureus at a lethal dose, and the efficacy of the tested drugs was determined by the ED50 value (i.e., the dose at which 50% of the experimental animals survive). Then, 30 min after infection, the mice were injected intravenously with eremomycin N-(2-((2-fluorobenzyl)amino)ethyl)amide (4e) at single doses from 0.1 to 2.5 mg/kg. or vancomycin at doses from 2.5 to 7.5 mg/kg. As a control dose, a group of untreated animals infected with a lethal dose of S. aureus was present in the experiment. The determination of ED50 of the tested compounds was carried out in one experiment under a single control using the Behrens method.

The subject of a further data set is S. pneumoniae ATCC 6305. Description: MIC, broth dilution micromethod (CLSI). As to conditions: sensitive strain, modal values (or range) of 3–5 independent tests. In kind it is cell-based.
Excerpt: as §1, §7, §8, §9, §10, §11

Where [5] appears, read: mouse staphylococcal sepsis model, single IV.

As for `CN[C@H](CC(C)C)C(=O)N[C@H]1C(=O)N[C@@H](CC(N)=O)C(=O)N[C@H]2C(=O)N[C@H]3C(=O)N[C@H](C(=O)N[C@H](C(=O)O)c4cc(O)cc(O)c4-c4cc3ccc4O)[C@H](O)c3ccc(c(Cl)c3)Oc3cc2cc(c3O[C@@H]2O[C@H](CO)[C@@H](O)[C@H](O)[C@H]2O[C@H]2C[C@](C)(N)[C@H](O)[C@H](C)O2)Oc2ccc(cc2Cl)[C@H]1O` [Vancomycin, vancomycin, reference compound], the “MIC E. gallinarum ВП 4147” value with E. gallinarum BΠ 4147 amounted to 8 µg/mL (≈ 5.52 µM). Also, the “MIC E. faecalis 583” value in the data set with E. faecalis 583 amounted to 32 µg/mL (≈ 22.1 µM). Besides, the “MIC E. faecalis 9” value in the data set on E. faecalis 9 is 8 µg/mL (≈ 5.52 µM). For the same molecule, in the data set with S.aureus 3798, the “MIC S.aureus 3798” value stood at 8 µg/mL (≈ 5.52 µM). In addition, the “MIC S.aureus 3797” value against S. aureus 3797 is 8 µg/mL (≈ 5.52 µM). In the data set on E. faecium 3576, the “MIC E. faecium 3576” value was more than 32 µg/mL. In addition, the “MIC E. faecium 2” value in the data set with E. faecium 2 is 8 µg/mL (≈ 5.52 µM). Besides, the “MIC S.haemoliticus 602” value in the data set on S. haemoliticus 602 worked out at 2 µg/mL (≈ 1.38 µM). Besides, the “MIC S.aureus R-2” value against S. aureus R-2 was 1 µg/mL (≈ 0.69 µM). Also, the “MIC E. faecium 4” value with E. faecium 4 was found to be 4 µg/mL (≈ 2.76 µM). Moreover, the “MIC E. faecalis 559” value in the data set on E. faecalis 559 amounted to 2 µg/mL (≈ 1.38 µM). In [1], the “MIC S.aureus ATCC 29213” value was in the range of 0.25 to 0.5 µg/mL. Further, the LD50 in data set [2] is listed as 525 mg/kg. In addition, the “therapeutic index (TI = LD50/ED50)” value in data set [3] came out at 128. In addition, the Survival in data set [4] (dose 2.5 mg/kg, single IV) was 20%; in [4] (dose 3.5 mg/kg, single IV), 40%; in [4] (dose 4.5 mg/kg, single IV), 50%; in data set [4] (dose 5.5 mg/kg, single IV), 80%; in data set [4] (dose 6.5 mg/kg, single IV), 90%; in data set [4] (dose 7.5 mg/kg, single IV), 100%. In addition, in data set [4], the ED50 (usually the dose at which the effect has come halfway, by size or by number of responders) worked out at 4.1 mg/kg.
For the molecule “Eremomycin N-(2-((2-fluorobenzyl)amino)ethyl)amide [4e]”, the “MIC E. gallinarum ВП 4147” value with E. gallinarum BΠ 4147 was 0.5 µg/mL. Further, the “MIC E. faecalis 583” value against E. faecalis 583 fell in the range of 0.25 to 0.5 µg/mL. Besides, in the data set on E. faecalis 9, the “MIC E. faecalis 9” value fell in the range of 0.03 to 0.06 µg/mL. For the same molecule, in the data set with S.aureus 3798, the “MIC S.aureus 3798” value is 1 µg/mL. Further, the “MIC S.aureus 3797” value in the data set on S. aureus 3797 turned out to be 0.5 µg/mL. In addition, in the data set on E. faecium 3576, the “MIC E. faecium 3576” value was in the range of 0.5 to 1 µg/mL. Moreover, the “MIC E. faecium 2” value against E. faecium 2 worked out at 0.5 µg/mL. Besides, in the data set on S. pneumoniae ATCC 6305, the “MIC S.pneumoniae ATCC 6305” value stood at 0.01 µg/mL. Further, the “MIC S.haemoliticus 602” value against S. haemoliticus 602 came to 0.125 µg/mL. For the same molecule, the “MIC S.aureus R-2” value against S. aureus R-2 was in the range of 0.03 to 0.06 µg/mL. The “MIC E. faecium 4” value against E. faecium 4 amounted to 0.25 µg/mL. Also, the “MIC E. faecalis 559” value in the data set on E. faecalis 559 stood at 0.125 µg/mL. The “MIC S.aureus ATCC 29213” value in data set [1] was 0.125 µg/mL. Also, the “outcome after the highest dose” value in [3] (200 mg/kg, single IV, mice) is reported as “died immediately”. In data set [3] (130–200 mg/kg, single IV, mice, observed 30 days), the “delayed death of animals” value is “No delayed death”. Further, in [3], the “therapeutic index (TI = LD50/ED50)” value is reported as 318. The LD50 in [3] (mice, single IV injection in 5% glucose, 5 mg/mL, n = 6 per group, Litchfield and Wilcoxon, mean (deviation for p ≤ 0.05)) was 175.5 (161.7 ÷ 189.8) * mg/kg. In addition, in data set [3] (mice, single IV injection, n = 6 per group, Litchfield and Wilcoxon), the “MTD (LD10)” value is 144.7 mg/kg. The Survival in data set [4] (dose 0.25 mg/kg, single IV) worked out at 30%; in data set [4] (dose 0.5 mg/kg, single IV), 50%; in data set [4] (dose 1 mg/kg, single IV), 60%; in data set [4] (dose 1.5 mg/kg, single IV), 80%; in data set [4] (dose 2.5 mg/kg, single IV) it was 100%. The molecule further had an ED50 in [4] of 0.55 mg/kg. Moreover, the “ED50 ratio: times more active than eremomycin” value in [4] (setting [5]) is recorded as 3.3 times. In data set [4] (setting [5]), the “ED50 ratio: times more effective than vancomycin” value is reported as 7.5 times.
